Measured values taken from ChEMBL document CHEMBL1135808, “A new type of mixed anhydride and its applications to the synthesis of 7-substituted 8-chloro-5,5-dioxoimidazo[1,2-b][1,4,2]benzodithiazines with in vitro antitumor activity” (2002).
The source made the active and inactive calls. No cut-off for these calls is given here.

Key:
Tumor Cell line [1] = assay: Log of molar concentration leading to 50% cell death was reported; Inactive; format: functional, cell-based; settings: Homo sapiens
Tumor Cell line [2] = assay: In vitro inhibition of 50% cell growth was reported as log of molar concentration for 54 cell lines; Inactive; format: functional, cell-based; settings: Homo sapiens
Tumor Cell line [3] = assay: In vitro total growth inhibition for 50 cell lines was reported as log of molar concentration; Inactive; format: functional, cell-based; settings: Homo sapiens
Tumor Cell line [4] = assay: In vitro inhibition of 50% cell growth was reported as log of molar concentration for 57 cell lines.; format: functional; settings: Homo sapiens
Tumor Cell line [5] = assay: In vitro total growth inhibition for 50 cell lines was reported as log of molar concentration; format: functional, Homo sapiens
Tumor Cell line [6] = assay: Log of molar concentration leading to 50% cell death was reported; format: functional; settings: Homo sapiens, read-out: Log LC50 (the source's name) (converted)
Tumor Cell line [7] = assay: In vitro inhibition of 50% cell growth was reported as log of molar concentration for 50 cell lines.; format: functional; settings: Homo sapiens
Tumor Cell line [8] = assay: In vitro inhibition of 50% cell growth was reported as log of molar concentration for 58 cell lines.; format: functional; settings: Homo sapiens
Tumor Cell line [9] = assay: In vitro inhibition of 50% cell growth was reported as log of molar concentration for 56 cell lines.; format: functional; settings: Homo sapiens
Tumor Cell line [10] = assay: Log of molar concentration leading to 50% cell death was reported for 50 cell lines; format: functional; settings: Homo sapiens, read-out: Log LC50 (the source's name) (converted)
Tumor Cell line [11] = assay: In vitro inhibition of 50% cell growth was reported as log of molar concentration for 54 cell lines.; format: functional; settings: Homo sapiens
Tumor Cell line [12] = assay: In vitro inhibition of 50% cell growth was reported as log of molar concentration for 46 cell lines.; format: functional; settings: Homo sapiens

SMILES | IA (Tumor Cell line [1]) | IA (Tumor Cell line [2]) | IA (Tumor Cell line [3]) | Log GTI (Tumor Cell line [5]) | CC50 (Tumor Cell line [6]) | further results
O=C(Oc1c(-c2ccccc2)oc2ccccc2c1=O)c1cc2c(cc1Cl)Sc1nccn1S2(=O)=O | inactive | inactive | inactive |  |  | 
Cc1ccc2cc(NC(=O)c3cc4c(cc3Cl)Sc3nccn3S4(=O)=O)ccc2n1 |  |  |  | -4.06 | 100 µM | GI50 (Tumor Cell line [4]): 33.9 µM
Cc1cccnc1NC(=O)c1cc2c(cc1Cl)Sc1nccn1S2(=O)=O | inactive | inactive | inactive |  |  | 
O=C(c1cc2c(cc1Cl)Sc1nccn1S2(=O)=O)N1c2ccccc2C=Cc2ccccc21 | inactive | inactive | inactive |  |  | 
O=C(Nc1ccc2cc3ccccc3cc2c1)c1cc2c(cc1Cl)Sc1nccn1S2(=O)=O |  |  |  | -4.52 |  | GI50 (Tumor Cell line [7]): 87.1 µM
O=C(Nc1ccc2scnc2c1)c1cc2c(cc1Cl)Sc1nccn1S2(=O)=O | inactive | inactive | inactive |  |  | 
O=C(Nc1ccccn1)c1cc2c(cc1Cl)Sc1nccn1S2(=O)=O |  |  |  | -4.02 | 58.9 µM | GI50 (Tumor Cell line [8]): 70.8 µM
O=C(Nc1cccc2cnccc12)c1cc2c(cc1Cl)Sc1nccn1S2(=O)=O |  |  |  | -4.04 |  | GI50 (Tumor Cell line [9]): 39.8 µM; CC50 (Tumor Cell line [10]): 100 µM
O=C1c2ccccc2/N=C(/c2cc3c(cc2Cl)Sc2nccn2S3(=O)=O)OS(=O)(=O)N1c1ccccc1 |  |  |  | -4.04 | 91.2 µM | GI50 (Tumor Cell line [11]): 81.3 µM
O=C(Nc1ccccc1C(=O)Nc1ccccc1)c1cc2c(cc1Cl)Sc1nccn1S2(=O)=O | inactive | inactive | inactive |  |  | 
Cc1ccnc(NC(=O)c2cc3c(cc2Cl)Sc2nccn2S3(=O)=O)c1 | inactive | inactive | inactive |  |  | 
O=c1c2ccccc2nc(-c2cc3c(cc2Cl)Sc2nccn2S3(=O)=O)n1-c1ccccc1 |  |  |  | -4.07 | 85.1 µM | GI50 (Tumor Cell line [12]): 89.1 µM
